IC50 data for 45 molecules are collected here from patent US7517998B2, “Non nucleoside reverse transcriptase inhibitors” (priority 2004, dated 2009).

In one assay the target is T1, K103NNY181C mutant reverse transcriptase (Human immunodeficiency virus type 1 group M subtype B, UniProt P04585, K690N/Y768C).
T1 construct: mutations that occur in the reverse transcriptase segment of the pol gene
Put plainly: Reverse transcriptase enzymatic assay (PicoGreen), K103N/Y181C mutant RT. It is filed as biochemical, HIV-1. As to conditions: IC50 mut (nM), mutant (K103N/Y181C) reverse transcriptase, enzymatic assay of Example 24. The method in brief:
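HIV-1 RT (2.5 nM final) pre-incubated 15 min at room temperature with inhibitor, then reacted 50 min at 37 °C with poly rC 45 nM, dG15 4.5 nM, dGTP 3.6 μM in Tris/HCl pH 7.8, 1% DMSO. Final inhibitor 10 μM to 0.508 nM; EDTA-quenched, PicoGreen fluorescence read at 485/520 nm.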
For orientation: IC50 means the concentration needed to halve the response being measured. `CC(C)(C)c1ccc(-n2nnnc2SCC(=O)Nc2ccc(NC(=O)Cc3ccccc3Cl)cc2Cl)c(Cl)c1` [Compound 7035]: the IC50 came out at 100 nM.

Take `CC(C)(C)c1ccc(-n2nnnc2SCC(=O)Nc2ccc(NC(=O)Cc3cccc4occc34)cc2Cl)c(Cl)c1` [Compound 7034]: the IC50 turned out to be 201 nM.

Regarding `CC(C)(C)c1ccc(-n2nnnc2SCC(=O)Nc2ccc(NC(=O)Cc3ccccc3C(F)(F)F)cc2Cl)c(Cl)c1` [Compound 7045], half-maximal inhibition (IC50) was put at 432 nM.

`CC(C)C(=O)Nc1ccc(NC(=O)CSc2nnnn2-c2ccc(C(C)(C)C)cc2Cl)c(Cl)c1` [Compound 7010] yielded a concentration for half-maximal inhibition (IC50) of 83 nM.

Turning to `CC(C)(C)c1ccc(-n2nnnc2SCC(=O)Nc2ccc(NC(=O)c3ccccc3Cl)cc2Cl)c(Cl)c1` [Compound 7013], half-maximal inhibition (IC50) was put at 121 nM.

The assay is the same for the next values; noted with them: IC50 mut, K103N/Y181C mutant reverse transcriptase, enzymatic assay of Example 24.
For `CN1CCN(C(=O)NC(C)(C)C#Cc2ccc(NC(=O)CSc3nnnn3-c3ccc(C4CC4)cc3Cl)c(Cl)c2)CC1` [Compound 4229], the IC50 is 15 nM.

Regarding `CC(C)(C#Cc1ccc(NC(=O)CSc2nnnn2-c2cc(Cl)ccc2Cl)c(Cl)c1)NC(=O)c1cc[n+]([O-])cc1` [Compound 4189], the midpoint of inhibition, the IC50, lay at 19.5 nM.

In turn, `CC(C)(C#Cc1ccc(NC(=O)CSc2nnnn2-c2cc(C(C)(C)C)cc(Br)c2Cl)c(Cl)c1)NC(=O)CN1CCC(C(=O)O)CC1` [Compound 4226] gave an IC50 of 52 nM.

Molecule `Cc1cc(C(F)(F)F)cc(-n2nnnc2SCC(=O)Nc2ccc(C#CC(C)(C)C(=O)O)cc2Cl)c1Cl` [Compound 4058] registered an IC50 of 63 nM.

Regarding `CC(C)(O)C#Cc1ccc(NC(=O)CSc2nnnn2-c2c(F)ccc(C(F)(F)F)c2Cl)c(Cl)c1` [Compound 4022], the IC50 is 185 nM.

Turning to `CC(C)(C#Cc1ccc(NC(=O)CSc2nnnn2-c2ccc(C(C)(C)C)cc2Cl)c(Cl)c1)OCC(=O)O` [Compound 4020], the IC50 amounted to 33 nM.

`CN(C)CC(=O)NC(C)(C)C#Cc1ccc(NC(=O)CSc2nnnn2-c2cc(C(F)(F)F)ccc2Cl)c(Cl)c1F` [Compound 4171]: inhibition was half-maximal at 31.5 nM (IC50).

`CC(C)(C#Cc1ccc(NC(=O)CSc2nnnn2-c2ccc(C3CC3)cc2Cl)c(Cl)c1)OCCN1CCC1` [Compound 4119] registered an IC50 of 121 nM.

As for `CC(C)(C)c1ccc(-n2nnnc2SCC(=O)Nc2ccc(C#CCO)cc2Cl)c(Cl)c1` [Compound 4006], the midpoint of inhibition, the IC50, lay at 11 nM.

As for `CC(C)(C#Cc1ccc(NC(=O)CSc2nnnn2-c2ccc(C3CC3)cc2Cl)c(Cl)c1)OCCNC1CC1` [Compound 4117], the IC50 amounted to 52 nM.

The molecule `CC(C)(C#Cc1ccc(NC(=O)CSc2nnnn2-c2cc(C(F)(F)F)ccc2Cl)c(Cl)c1F)C(=O)O` [Compound 4101] registered an IC50 of 57 nM.

In the case of `CC(C)(C)c1ccc(-n2nnnc2SCC(=O)Nc2ccc(C#CCN3CCCCC3)cc2Cl)c(Cl)c1` [Compound 4014], 88 nM corresponded to half-maximal inhibition (IC50).

With `CC(C)(C#Cc1ccc(NC(=O)CSc2nnnn2-c2ccc(C3CC3)cc2Cl)c(Cl)c1)NC(=O)CNc1ccncc1` [Compound 4188], 24 nM corresponded to half-maximal inhibition (IC50).

As for `CC(C)(C#Cc1ccc(NC(=O)CSc2nnnn2-c2ccc(C3CC3)cc2Cl)c(Cl)c1)NC(=O)CN1CCC(O)CC1` [Compound 4125], the IC50 stood at 26 nM.

For the molecule `CC(C)(C#Cc1ccc(NC(=O)CSc2nnnn2-c2ccc(C3CC3)cc2Cl)c(Cl)c1)NC(=O)CNCCCn1ccnc1` [Compound 4127], 20.5 nM corresponded to half-maximal inhibition (IC50).

In turn, `CN(C)CCCC(=O)NC(C)(C)C#Cc1ccc(NC(=O)CSc2nnnn2-c2cc(C(F)(F)F)ccc2Cl)c(Cl)c1` [Compound 4147] had an IC50 of 52 nM.

In turn, `CC(C)(C#Cc1ccc(NC(=O)CSc2nnnn2-c2ccc(CC3CC3)cc2Cl)c(Cl)c1)C(=O)O` [Compound 4240] showed an IC50 of 175 nM.

Molecule `CC(C)(C#Cc1ccc(NC(=O)CSc2nnnn2-c2ccc(C(C)(C)C)cc2Cl)c(Cl)c1)C(=O)O` [Compound 4011] returned an IC50 of 25 nM.

`CC(C)(C#Cc1ccc(NC(=O)CSc2nnnn2-c2cc(F)ccc2Cl)c(Cl)c1)C(=O)O` [Compound 4212] yielded an IC50 of 362 nM.

Turning to `Cc1cc(C)c(-n2nnnc2SCC(=O)Nc2ccc(C#CC(C)(C)O)cc2Cl)c(Cl)c1` [Compound 4007], half-maximal inhibition (IC50) required 38 nM.

Take `CC(C)(C#Cc1ccc(NC(=O)CSc2nnnn2-c2ccc(C(C)(C)C)cc2Cl)c(Cl)c1)OCC(=O)NCCC(=O)O` [Compound 4055]: the IC50 came to 15 nM.

In turn, `CC(C)(C#Cc1ccc(NC(=O)CSc2nnnn2-c2ccc(C3CC3)cc2Cl)c(Cl)c1)NC(=O)c1ccncc1` [Compound 4085] gave an IC50 of 12 nM.

Consider `CC(C)(C#Cc1ccc(NC(=O)CSc2nnnn2-c2ccc(C(C)(C)C)cc2Cl)c(Cl)c1)OCC(=O)N1CCCC1` [Compound 4038], for which the IC50 was 75 nM.

With `CC(C)(C#Cc1ccc(NC(=O)CSc2nnnn2-c2ccc(C(C)(C)C)cc2Cl)c(Cl)c1)CO` [Compound 4016], the IC50 came out at 35 nM.

Consider `CC(C)(C#Cc1ccc(NC(=O)CSc2nnnn2-c2ccc(C3CC3)cc2Cl)c(Cl)c1)NC(=O)CN1CCNCC1` [Compound 4124], for which half-maximal inhibition (IC50) was put at 27 nM.

The same assay, now with this note: IC50 mut, mutant reverse transcriptase, enzymatic assay of Example 24.
`CC(C)(C)c1ccc(-n2nccc2SCC(=O)Nc2ccc(-c3ccc(CC(=O)O)cc3)cc2Cl)c(Cl)c1` [Compound 1006] had an IC50 of 216 nM.

In the case of `O=C(CSc1nnnn1-c1ccc(C2CC2)cc1Cl)Nc1ccc(C(=O)NCc2cc[n+]([O-])cc2)cc1Cl` [Compound 6034], the IC50 was found to be 44.5 nM.

For `Cc1nnc(SCC(=O)Nc2ccc(-c3ccc(OCCN4CCCCC4)cc3)cc2Cl)n1-c1ccc(C2CC2)cc1Cl` [Compound 1013], the IC50 turned out to be 75 nM.

In turn, `O=C(O)Cc1ccc(-c2ccc(NC(=O)CSc3nnnn3-c3ccc(OC(F)(F)F)cc3Cl)c(Cl)c2)cc1` [Compound 2034] returned an IC50 of 178 nM.

For `CC(C)(C)c1ccc(-n2nnnc2SCC(=O)Nc2ccc(-c3ccc(/C=C/C(=O)O)cc3)cc2Cl)c(Cl)c1` [Compound 2032], the IC50 stood at 6.6 nM.

Molecule `COC(=O)Cc1cccc(-c2ccc(NC(=O)CSc3nnnn3-c3ccc(C)cc3Cl)c(Cl)c2)c1` [Compound 3002] showed an IC50 of 120 nM.

In the case of `O=C(CSc1nnnn1-c1cc(C(F)(F)F)ccc1Cl)Nc1ccc(-c2ccc(OCCN3CCCC3)cc2)c(F)c1Cl` [Compound 2058], the IC50 was 25 nM.

`Cc1ccc(-n2nnnc2SCC(=O)Nc2ccc(-c3ccc(OCC(=O)O)cc3)cc2Cl)c(Cl)c1` [Compound 2007] showed an IC50 of 22 nM.

`O=C(COc1ccc(NC(=O)CSc2nnnn2-c2ccc(C3CC3)cc2Cl)c(Cl)c1)NCCc1cccc[n+]1[O-]` [Compound 5038] registered a 50% inhibitory concentration (IC50) of 557 nM.

The molecule `CC(C)(C)c1cc(Cl)c(-n2nnnc2SCC(=O)Nc2ccc(-c3ccc(OCC(=O)O)cc3)cc2Cl)c(Cl)c1` [Compound 2018] displayed an IC50 of 12 nM.

In the case of `Cc1ccc(-n2nnnc2SCC(=O)Nc2ccc(-c3ccc(CCO)cc3)cc2Cl)c(Cl)c1` [Compound 2009], half-maximal inhibition (IC50) required 28 nM.

Molecule `CC(C)NS(=O)(=O)c1ccc(NC(=O)CSc2nnnn2-c2ccc(C(C)(C)C)cc2Cl)c(Cl)c1` [Compound 3023] showed an IC50 of 284 nM.

In turn, `O=C(CSc1nnnn1-c1ccc(C2CC2)cc1Cl)Nc1ccc(-c2ccc(OCCN3CCS(=O)(=O)CC3)cc2)c(F)c1Cl` [Compound 2059] registered an IC50 of 13 nM.

For `O=C(CSc1nnnn1-c1ccc(C2CC2)cc1Cl)Nc1ccc(-c2ccc(OCCN3CCCC3)cc2)cc1Cl` [Compound 2046], the IC50 was 6.95 nM.

`CC(C)(C)c1ccc(-n2nnnc2SCC(=O)Nc2ccc(OCC(=O)Nc3ccccc3O)cc2Cl)c(Cl)c1` [Compound 5009] came in with a half-maximal inhibitory concentration (IC50) of 131 nM.
